# ChEMBL document CHEMBL3046328, “Ligand-based pharmacophore detection, screening of potential pharmacophore and docking studies, to get effective glycogen synthase kinase inhibitors” (Med Chem Res, 2013)
# How the values were obtained:
# [1] = biological target: Mitogen-activated protein kinase 1 (Homo sapiens, UniProt P28482); assay: Inhibition of ERK2 (unknown origin)
# [2] = biological target: T1, Aurora kinase A (Homo sapiens, UniProt O14965); assay: Inhibition of Aurora2 (unknown origin)
# T1 sequence (O14965 whole entry): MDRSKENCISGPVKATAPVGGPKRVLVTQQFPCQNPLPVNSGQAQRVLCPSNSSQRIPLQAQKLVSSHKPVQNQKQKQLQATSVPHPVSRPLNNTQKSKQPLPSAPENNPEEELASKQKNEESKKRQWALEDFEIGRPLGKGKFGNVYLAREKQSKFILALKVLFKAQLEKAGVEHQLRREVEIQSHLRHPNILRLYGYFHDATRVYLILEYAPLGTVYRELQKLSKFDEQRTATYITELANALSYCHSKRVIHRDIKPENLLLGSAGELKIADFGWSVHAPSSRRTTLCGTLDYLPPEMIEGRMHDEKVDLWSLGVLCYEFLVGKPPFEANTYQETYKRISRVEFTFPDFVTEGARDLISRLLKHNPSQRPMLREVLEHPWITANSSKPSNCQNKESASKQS
# [3] = biological target: T2, Glycogen synthase kinase-3 (Homo sapiens, UniProt P49840+P49841); assay: Inhibition of GSK3 (unknown origin); assay type: protein assay
# [4] = biological target: T2, Glycogen synthase kinase-3; assay: Inhibition of GSK3 (unknown origin) at 1 uM; assay type: protein assay
# [5] = biological target: Proto-oncogene tyrosine-protein kinase Src (Homo sapiens, UniProt P12931); assay: Inhibition of SRC (unknown origin)
# [6] = biological target: Glycogen synthase kinase-3 beta (Homo sapiens, UniProt P49841); assay: Inhibition of GSK3beta (unknown origin)
# Sequence of Glycogen synthase kinase-3 beta (P49841 whole entry): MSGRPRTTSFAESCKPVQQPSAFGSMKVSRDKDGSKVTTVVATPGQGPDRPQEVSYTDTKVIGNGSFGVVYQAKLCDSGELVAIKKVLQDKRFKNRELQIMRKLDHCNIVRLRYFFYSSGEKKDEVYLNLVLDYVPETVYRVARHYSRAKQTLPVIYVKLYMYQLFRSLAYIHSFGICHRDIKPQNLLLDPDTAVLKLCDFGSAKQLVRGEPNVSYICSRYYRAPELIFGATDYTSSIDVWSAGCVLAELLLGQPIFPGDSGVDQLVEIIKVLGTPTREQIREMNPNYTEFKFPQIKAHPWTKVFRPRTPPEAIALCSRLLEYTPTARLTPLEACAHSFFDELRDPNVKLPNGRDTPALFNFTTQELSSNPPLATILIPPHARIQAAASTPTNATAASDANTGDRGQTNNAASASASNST
# Sequence of Proto-oncogene tyrosine-protein kinase Src (P12931 2-536 limits assumed): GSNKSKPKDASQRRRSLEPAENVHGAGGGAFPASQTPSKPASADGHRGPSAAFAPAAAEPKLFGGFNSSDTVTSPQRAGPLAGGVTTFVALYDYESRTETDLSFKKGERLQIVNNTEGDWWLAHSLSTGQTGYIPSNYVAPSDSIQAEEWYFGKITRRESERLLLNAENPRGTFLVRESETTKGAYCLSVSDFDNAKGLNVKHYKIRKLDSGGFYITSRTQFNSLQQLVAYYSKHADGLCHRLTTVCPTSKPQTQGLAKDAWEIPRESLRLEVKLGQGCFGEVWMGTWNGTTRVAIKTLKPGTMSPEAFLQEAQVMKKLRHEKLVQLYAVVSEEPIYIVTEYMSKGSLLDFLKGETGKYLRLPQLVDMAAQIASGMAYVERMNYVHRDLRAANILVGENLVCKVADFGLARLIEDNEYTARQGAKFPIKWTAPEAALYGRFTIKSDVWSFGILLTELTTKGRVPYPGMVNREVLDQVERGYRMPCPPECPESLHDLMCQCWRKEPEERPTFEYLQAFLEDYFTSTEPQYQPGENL
# Sequence of Mitogen-activated protein kinase 1 (P28482 whole entry): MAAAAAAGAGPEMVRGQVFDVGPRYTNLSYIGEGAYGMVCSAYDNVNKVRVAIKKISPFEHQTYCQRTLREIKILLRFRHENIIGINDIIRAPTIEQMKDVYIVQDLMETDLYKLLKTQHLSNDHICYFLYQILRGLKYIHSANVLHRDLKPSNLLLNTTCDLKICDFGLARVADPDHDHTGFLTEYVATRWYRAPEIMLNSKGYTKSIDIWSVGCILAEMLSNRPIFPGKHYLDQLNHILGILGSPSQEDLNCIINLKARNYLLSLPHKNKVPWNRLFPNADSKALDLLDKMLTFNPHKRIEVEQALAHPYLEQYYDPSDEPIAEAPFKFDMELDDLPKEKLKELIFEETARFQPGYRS
# T2 sequence (P49840 whole entry, looked up): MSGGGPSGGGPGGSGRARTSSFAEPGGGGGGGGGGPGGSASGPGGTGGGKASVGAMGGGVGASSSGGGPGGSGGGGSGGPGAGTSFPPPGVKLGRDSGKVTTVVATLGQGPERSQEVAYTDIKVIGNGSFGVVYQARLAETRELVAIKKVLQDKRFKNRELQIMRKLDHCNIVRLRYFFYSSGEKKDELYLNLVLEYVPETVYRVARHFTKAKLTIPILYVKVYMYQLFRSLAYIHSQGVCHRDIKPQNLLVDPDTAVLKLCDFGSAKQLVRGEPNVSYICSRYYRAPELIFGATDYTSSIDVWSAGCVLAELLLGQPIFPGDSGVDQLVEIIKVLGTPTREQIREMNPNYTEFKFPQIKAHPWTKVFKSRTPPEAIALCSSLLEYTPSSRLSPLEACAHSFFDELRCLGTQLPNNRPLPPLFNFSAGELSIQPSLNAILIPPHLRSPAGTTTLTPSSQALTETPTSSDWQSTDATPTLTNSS
# T2 sequence (P49841 whole entry, looked up): as the sequence (P49841 whole entry) above
Structure (SMILES),Ki [1],IC50 [3],Ki [5],Ki [2],Ki [3],further results
O=[N+]([O-])c1ccc2c(c1)[n+]([O-])c1c3ccccc3[nH]c1[n+]2[O-],< 0.001 mM,–,–,–,–,IC50 [2]: < 5 µM
CCN(CC)CCCNc1nc2ccccc2c2[nH]c3ccc(OC)cc3c12,–,1 µM,–,–,–,–
C[n+]1c2ccccc2[n+]2[nH]c3ccccc3n12,–,1 µM,–,–,–,–
CCSc1nc2c([nH]1)[nH]c1ccccc12,–,–,–,–,–,inhibition [4]: 63%
Cc1nc[nH]c1[C@H]1c2nc[nH]c2CCN1Cc1nc2ccccc2[nH]1,1 mM,–,< 100 nM,< 100 µM,< 0.1 mM,–
CCN(Cc1cn2cccc(C)c2n1)Cc1nc2ccccc2c(=O)[nH]1,–,< 10 µM,–,–,–,–
O=C(N=c1[nH]c2ccccc2[nH]1)NC[C@H]1CCC[C@@H](CNC(=O)N=c2[nH]c3ccccc3[nH]2)C1,–,1 µM,–,–,–,–
Cc1cccn2cc(CN(Cc3nc4ccccc4c(=O)[nH]3)C(C)C)nc12,1 mM,–,< 100 nM,< 100 µM,< 0.1 mM,–
Cc1ccc(-c2c[nH]c(C3COCCN3Cc3c[nH]c4ccccc34)n2)cc1 (stereo not given),–,–,–,–,–,IC50 [6]: 120 nM
Cc1nc[nH]c1[C@@H]1c2nc[nH]c2CCN1Cc1nc2ccccc2[nH]1,1 mM,–,< 100 nM,< 100 µM,< 0.1 mM,–
